From ChEMBL document CHEMBL5465560, “Selectivity Literature for EUbOPEN Chemogenomic Library” (2024)

Assays:
[1] = biological target: Tyrosine-protein kinase Fer (Homo sapiens) (UniProt P16591); assay: Selectivity interaction (Kinase panel (KiNativ target engagement assay in Jurkat cells)) EUB0001635a FER; assay type: cell-based; settings: Selectivity number of off-targets 0.0, Selectivity number of targets 233.0, Source Knowledge https://www.sciencedirect.com/science/article/pii/S2451945619300674?via%3Dihub, at 1 µM
[2] = biological target: T1, Serine/threonine-protein kinase Nek1 (Homo sapiens) (UniProt Q96PY6); assay: Selectivity interaction (KinomeScan (DiscoverX)) EUB0000695a NEK1; settings: at 100 nM
T1 sequence (whole entry): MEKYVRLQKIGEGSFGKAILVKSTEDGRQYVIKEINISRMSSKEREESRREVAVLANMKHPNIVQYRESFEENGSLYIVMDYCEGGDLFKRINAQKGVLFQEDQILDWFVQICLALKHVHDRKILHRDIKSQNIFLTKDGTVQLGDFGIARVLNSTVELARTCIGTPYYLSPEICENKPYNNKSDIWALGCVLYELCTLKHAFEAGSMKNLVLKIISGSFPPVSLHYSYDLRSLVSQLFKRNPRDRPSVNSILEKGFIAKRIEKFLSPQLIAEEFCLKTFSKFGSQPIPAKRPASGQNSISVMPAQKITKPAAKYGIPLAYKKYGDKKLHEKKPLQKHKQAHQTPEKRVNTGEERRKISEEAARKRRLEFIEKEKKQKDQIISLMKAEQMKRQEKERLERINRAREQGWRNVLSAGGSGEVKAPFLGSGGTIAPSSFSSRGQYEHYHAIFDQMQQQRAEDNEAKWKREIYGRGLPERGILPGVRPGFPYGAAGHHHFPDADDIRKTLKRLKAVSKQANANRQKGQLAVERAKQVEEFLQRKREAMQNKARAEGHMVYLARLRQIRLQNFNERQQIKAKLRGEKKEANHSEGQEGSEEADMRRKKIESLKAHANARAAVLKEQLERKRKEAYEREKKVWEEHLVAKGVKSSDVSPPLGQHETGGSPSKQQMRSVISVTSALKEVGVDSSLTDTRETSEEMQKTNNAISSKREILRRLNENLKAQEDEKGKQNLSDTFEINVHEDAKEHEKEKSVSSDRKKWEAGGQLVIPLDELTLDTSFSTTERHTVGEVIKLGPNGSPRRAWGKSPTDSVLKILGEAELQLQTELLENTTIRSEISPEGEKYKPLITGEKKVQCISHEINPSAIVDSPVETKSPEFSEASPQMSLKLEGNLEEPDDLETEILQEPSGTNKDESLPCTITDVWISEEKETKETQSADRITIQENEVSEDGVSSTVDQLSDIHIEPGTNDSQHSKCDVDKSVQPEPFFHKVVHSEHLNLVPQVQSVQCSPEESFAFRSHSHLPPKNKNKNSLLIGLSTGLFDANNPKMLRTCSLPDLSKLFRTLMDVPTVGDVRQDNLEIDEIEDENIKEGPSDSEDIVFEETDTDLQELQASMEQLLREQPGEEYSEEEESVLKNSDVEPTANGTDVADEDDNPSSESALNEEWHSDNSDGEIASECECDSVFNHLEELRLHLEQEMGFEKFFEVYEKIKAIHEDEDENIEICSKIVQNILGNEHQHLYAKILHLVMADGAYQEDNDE

[3] = biological target: Receptor tyrosine-protein kinase erbB-4 (Homo sapiens, UniProt Q15303); assay: Selectivity interaction (Millipore kinase profiler) EUB0000124b ERBB4; settings: at 10 µM
[4] = biological target: Mitogen-activated protein kinase kinase kinase 11 (Homo sapiens) (UniProt Q16584); assay: Selectivity interaction (ProQinase) EUB0000171b MAP3K11
[5] = biological target: MAP kinase-interacting serine/threonine-protein kinase 1 (Homo sapiens) (UniProt Q9BUB5); assay: Selectivity interaction (KinomeScan (DiscoverX)) EUB0000607a MKNK1; settings: at 10 µM
[6] = biological target: T2, Muscle, skeletal receptor tyrosine-protein kinase (Homo sapiens) (UniProt O15146); assay: Selectivity interaction (Kinase panel (Invitrogen)) EUB0000639a MUSK; settings: at 200 nM
T2 sequence (whole entry): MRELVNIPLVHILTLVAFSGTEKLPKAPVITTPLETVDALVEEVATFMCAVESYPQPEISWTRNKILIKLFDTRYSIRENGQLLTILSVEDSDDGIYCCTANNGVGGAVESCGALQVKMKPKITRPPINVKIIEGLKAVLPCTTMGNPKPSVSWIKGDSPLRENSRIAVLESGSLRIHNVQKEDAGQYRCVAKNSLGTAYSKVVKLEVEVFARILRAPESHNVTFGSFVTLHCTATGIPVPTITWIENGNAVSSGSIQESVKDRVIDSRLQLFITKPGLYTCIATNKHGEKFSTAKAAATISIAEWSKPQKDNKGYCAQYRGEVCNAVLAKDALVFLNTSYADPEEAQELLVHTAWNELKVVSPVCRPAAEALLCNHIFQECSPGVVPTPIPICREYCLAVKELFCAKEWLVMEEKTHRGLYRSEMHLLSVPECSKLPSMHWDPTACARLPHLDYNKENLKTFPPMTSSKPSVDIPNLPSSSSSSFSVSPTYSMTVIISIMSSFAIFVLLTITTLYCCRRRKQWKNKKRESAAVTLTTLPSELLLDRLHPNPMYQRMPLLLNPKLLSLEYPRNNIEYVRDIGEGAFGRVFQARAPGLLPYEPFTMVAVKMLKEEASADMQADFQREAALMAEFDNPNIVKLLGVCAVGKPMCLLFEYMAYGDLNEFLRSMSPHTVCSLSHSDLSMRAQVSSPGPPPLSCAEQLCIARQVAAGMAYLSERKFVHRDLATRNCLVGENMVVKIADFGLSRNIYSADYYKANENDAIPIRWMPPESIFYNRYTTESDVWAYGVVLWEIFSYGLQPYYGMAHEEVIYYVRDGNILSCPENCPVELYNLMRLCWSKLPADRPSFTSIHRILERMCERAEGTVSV

[7] = biological target: Epithelial discoidin domain-containing receptor 1 (Homo sapiens) (UniProt Q08345); assay: Selectivity interaction (KinomeScan (DiscoverX)) EUB0000699a DDR1; settings: at 10 µM
Sequence of Epithelial discoidin domain-containing receptor 1 (Homo sapiens) (Q08345 whole entry, the tested form may be a part): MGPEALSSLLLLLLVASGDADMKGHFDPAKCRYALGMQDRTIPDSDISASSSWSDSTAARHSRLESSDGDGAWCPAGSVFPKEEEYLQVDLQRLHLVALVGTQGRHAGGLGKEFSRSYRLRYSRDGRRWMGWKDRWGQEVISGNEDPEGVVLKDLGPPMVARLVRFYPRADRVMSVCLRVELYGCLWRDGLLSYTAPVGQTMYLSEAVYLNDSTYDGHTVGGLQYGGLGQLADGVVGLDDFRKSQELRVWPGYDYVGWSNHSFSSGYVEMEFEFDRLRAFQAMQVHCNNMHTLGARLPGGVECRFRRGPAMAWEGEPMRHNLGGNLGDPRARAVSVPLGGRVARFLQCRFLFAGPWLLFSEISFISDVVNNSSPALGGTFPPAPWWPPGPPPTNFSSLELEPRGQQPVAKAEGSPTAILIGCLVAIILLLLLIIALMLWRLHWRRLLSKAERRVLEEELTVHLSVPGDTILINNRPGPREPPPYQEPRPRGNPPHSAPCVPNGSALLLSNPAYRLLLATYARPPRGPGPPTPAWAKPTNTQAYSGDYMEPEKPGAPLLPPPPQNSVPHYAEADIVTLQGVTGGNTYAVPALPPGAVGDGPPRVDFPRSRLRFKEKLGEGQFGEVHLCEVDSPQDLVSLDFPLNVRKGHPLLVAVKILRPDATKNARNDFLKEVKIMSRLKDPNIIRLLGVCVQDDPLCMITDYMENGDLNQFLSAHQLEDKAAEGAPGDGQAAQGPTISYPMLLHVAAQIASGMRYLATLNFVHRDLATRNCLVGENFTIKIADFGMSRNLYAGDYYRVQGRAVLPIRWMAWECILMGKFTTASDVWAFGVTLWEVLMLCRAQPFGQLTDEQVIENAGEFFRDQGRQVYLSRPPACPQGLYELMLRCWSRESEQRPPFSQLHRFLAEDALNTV

Sequence of Mitogen-activated protein kinase kinase kinase 11 (Homo sapiens) (Q16584 whole entry, looked up): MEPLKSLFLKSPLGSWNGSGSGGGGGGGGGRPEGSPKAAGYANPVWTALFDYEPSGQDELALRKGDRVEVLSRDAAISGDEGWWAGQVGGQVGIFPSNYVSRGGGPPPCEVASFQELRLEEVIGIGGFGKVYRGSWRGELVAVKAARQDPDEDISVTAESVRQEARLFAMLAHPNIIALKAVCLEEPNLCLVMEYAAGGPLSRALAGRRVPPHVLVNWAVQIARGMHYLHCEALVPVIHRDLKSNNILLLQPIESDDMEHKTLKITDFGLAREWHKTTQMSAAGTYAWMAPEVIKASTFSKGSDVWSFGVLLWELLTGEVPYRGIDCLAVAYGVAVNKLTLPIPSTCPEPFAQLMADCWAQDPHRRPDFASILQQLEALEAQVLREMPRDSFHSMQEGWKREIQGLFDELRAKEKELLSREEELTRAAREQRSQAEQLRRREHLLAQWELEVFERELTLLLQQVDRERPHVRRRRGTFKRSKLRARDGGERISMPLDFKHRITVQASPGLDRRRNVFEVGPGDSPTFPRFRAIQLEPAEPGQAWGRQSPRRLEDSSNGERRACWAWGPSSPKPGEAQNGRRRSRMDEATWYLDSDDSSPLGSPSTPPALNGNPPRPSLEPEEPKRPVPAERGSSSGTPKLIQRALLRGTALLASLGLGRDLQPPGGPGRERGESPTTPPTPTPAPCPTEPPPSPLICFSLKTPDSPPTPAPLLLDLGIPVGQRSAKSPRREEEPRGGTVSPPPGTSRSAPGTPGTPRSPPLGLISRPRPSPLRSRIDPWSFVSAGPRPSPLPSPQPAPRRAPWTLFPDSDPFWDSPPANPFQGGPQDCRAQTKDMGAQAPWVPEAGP
Sequence of Tyrosine-protein kinase Fer (Homo sapiens) (P16591 whole entry, looked up): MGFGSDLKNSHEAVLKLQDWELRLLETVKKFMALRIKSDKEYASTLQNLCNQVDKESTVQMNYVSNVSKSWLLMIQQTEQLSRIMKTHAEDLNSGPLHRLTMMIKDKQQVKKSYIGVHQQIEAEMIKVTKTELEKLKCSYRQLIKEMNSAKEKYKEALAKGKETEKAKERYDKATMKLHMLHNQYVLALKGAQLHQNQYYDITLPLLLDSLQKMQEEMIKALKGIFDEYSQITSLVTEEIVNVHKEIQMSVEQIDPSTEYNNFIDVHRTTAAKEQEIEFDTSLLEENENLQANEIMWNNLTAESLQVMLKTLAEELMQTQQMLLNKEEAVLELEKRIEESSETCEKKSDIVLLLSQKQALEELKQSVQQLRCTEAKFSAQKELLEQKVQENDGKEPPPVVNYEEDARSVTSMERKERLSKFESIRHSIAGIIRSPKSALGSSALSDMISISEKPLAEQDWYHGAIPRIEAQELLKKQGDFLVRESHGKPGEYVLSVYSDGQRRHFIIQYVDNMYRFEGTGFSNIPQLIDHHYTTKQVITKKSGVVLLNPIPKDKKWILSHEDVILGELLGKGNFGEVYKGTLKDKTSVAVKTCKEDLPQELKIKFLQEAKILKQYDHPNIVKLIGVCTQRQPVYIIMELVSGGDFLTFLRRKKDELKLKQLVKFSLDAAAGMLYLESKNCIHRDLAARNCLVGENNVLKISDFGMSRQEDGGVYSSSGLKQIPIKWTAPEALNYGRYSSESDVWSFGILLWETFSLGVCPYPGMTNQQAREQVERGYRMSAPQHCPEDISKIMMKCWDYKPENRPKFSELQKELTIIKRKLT
Sequence of Receptor tyrosine-protein kinase erbB-4 (Q15303 whole entry): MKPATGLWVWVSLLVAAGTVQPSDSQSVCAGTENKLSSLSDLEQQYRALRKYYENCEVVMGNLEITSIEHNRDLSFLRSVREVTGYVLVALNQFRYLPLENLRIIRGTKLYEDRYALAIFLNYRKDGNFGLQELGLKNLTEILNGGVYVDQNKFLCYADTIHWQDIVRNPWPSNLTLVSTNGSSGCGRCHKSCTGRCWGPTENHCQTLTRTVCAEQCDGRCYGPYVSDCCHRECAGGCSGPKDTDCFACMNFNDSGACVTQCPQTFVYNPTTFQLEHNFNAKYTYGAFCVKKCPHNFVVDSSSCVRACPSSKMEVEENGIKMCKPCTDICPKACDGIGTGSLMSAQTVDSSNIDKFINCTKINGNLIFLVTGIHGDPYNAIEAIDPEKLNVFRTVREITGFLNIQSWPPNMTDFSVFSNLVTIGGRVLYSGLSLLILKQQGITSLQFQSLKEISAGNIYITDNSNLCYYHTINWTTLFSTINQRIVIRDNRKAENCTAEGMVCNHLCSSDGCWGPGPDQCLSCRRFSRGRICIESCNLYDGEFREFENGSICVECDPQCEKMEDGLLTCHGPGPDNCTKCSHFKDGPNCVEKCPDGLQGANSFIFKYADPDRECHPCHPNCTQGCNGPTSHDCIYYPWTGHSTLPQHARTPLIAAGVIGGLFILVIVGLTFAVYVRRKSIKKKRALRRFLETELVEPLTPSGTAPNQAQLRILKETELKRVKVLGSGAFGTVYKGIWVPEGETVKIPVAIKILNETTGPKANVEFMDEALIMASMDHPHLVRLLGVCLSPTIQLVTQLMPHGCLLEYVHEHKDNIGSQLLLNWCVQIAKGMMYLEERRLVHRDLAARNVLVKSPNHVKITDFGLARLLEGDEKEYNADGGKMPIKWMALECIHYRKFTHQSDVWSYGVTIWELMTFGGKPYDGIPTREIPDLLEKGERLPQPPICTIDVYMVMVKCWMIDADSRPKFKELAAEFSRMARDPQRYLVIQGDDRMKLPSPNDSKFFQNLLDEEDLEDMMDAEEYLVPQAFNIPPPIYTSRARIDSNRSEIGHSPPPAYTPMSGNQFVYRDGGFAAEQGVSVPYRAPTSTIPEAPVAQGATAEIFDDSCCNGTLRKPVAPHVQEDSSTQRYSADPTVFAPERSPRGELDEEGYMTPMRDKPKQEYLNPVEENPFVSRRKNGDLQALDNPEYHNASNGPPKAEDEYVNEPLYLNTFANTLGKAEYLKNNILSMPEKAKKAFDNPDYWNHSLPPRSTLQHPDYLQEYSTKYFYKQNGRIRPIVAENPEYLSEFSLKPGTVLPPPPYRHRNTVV
Sequence of MAP kinase-interacting serine/threonine-protein kinase 1 (Homo sapiens) (Q9BUB5 whole entry, looked up): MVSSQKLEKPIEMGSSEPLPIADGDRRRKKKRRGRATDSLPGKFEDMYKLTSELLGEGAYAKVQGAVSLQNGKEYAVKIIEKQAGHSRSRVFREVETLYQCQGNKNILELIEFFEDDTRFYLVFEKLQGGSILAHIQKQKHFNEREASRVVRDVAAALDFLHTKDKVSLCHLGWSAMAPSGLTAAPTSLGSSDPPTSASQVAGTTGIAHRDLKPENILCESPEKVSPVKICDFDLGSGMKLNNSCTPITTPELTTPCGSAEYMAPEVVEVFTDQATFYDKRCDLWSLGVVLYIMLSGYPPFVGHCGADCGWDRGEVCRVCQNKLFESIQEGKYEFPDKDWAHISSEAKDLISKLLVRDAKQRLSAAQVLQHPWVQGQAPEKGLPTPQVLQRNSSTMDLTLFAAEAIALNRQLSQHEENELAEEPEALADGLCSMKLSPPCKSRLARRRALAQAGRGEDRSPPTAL

Compound: C=CC(=O)Nc1ccc(C(=O)Nc2[nH]nc3c2CN(C(=O)N[C@H](CN(C)C)c2ccccc2)C3(C)C)cc1
- % of engagement [1]: -2.6%

Compound: Cc1cc(F)c(C(=O)Nc2cccc(-c3nncn3C(C)C)n2)cc1-n1cnc(C2CC2)c1
- % of control [2]: 100%

Compound: CC(=O)Nc1cccc(-n2c(=O)n(C3CC3)c(=O)c3c(Nc4ccc(I)cc4F)n(C)c(=O)c(C)c32)c1
- % of control [3]: 101%

Compound: C=CC(=O)Nc1cccc(C(=O)Nc2ccc(Nc3cc(-c4[nH]c(SC)nc4C)ccn3)cc2)c1
- % of control ([4]; at 1 µM): 28%
- % of control ([4]; at 5 µM): 13%

Compound: CNC(=O)Nc1ccc(-c2nc(N3CC4CCC(C3)O4)c3cnn(C4CCC5(CC4)OCCO5)c3n2)cc1
- % of control [5]: 100%

Compound: CC[C@@H]1[C@H](F)C(=O)N[C@@H]1COc1nccc2cc(C(N)=O)c(OC)cc12 [ZIMLOVISERTIB]
- % of inhibition [6]: -2.77%

Compound: CCN(CC)CCCCNc1ncc2cc(-c3cc(OC)cc(OC)c3)c(NC(=O)NC(C)(C)C)nc2n1
- % of control [7]: 1.1%
